Results taken from patent US20120165319A1, “INHIBITORS OF INTERLEUKIN-1 BETA CONVERTING ENZYME” (VERTEX PHARMACEUTICALS INCORPORATED, priority 1995, published 2012).

Legend:
[1] = test system: IL-1β, human peripheral blood mononuclear cells (PBMC); assay: PBMC cell assay: IL-1β assay with human PBMC or enriched adherent mononuclear cells, LPS-stimulated; assay type: cell-based; details: Homo sapiens, PBMC, Table 17
Outline: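 Buffy-coat human PBMC at 6×10^6 cells/ml, or adherent monocytes enriched by 1 h adherence (2.5−3.0×10^5 cells/well), are given 5–6 compound dilutions bracketing the ICE Ki (final DMSO 0.1%) plus LPS at a final 5 ng/ml. They are incubated 16–18 hr at 37 °C, 5% CO2, and supernatant mature IL-1β is measured by ELISA, with duplicate cultures and duplicate ELISAs.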

IL-1β, human whole blood = assay: Whole blood assay for IL-1β production; assay type: cell-based; details: Homo sapiens, Table 17; read-out: Whole human blood IC50
Outline: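 Human whole blood collected on Na2EDTA was treated with serially diluted compound in saline and then stimulated with LPS at 5.0 ng/ml final, for 16-18 h at 30 °C, in duplicate or triplicate. Plasma IL-1β was measured by ELISA at 1:200 dilution.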

ICE = target: T1, ICE (Homo sapiens, UniProt P29466); assay: Enzyme assay with UV-visible substrate (visible ICE assay, Succinyl-Tyr-Val-Ala-Asp-pNitroanilide); assay type: biochemical; details: Table 17
T1 sequence (P29466 120-297 limits assumed): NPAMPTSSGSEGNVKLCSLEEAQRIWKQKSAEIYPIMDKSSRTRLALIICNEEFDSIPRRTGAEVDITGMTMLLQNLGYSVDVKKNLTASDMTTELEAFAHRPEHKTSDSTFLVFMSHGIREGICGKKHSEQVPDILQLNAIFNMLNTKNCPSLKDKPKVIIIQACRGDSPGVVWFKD
T1 sequence (P29466 317-404 limits assumed): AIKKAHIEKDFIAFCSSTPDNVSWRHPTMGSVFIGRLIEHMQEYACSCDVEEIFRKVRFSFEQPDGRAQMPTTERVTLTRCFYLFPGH
Outline: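 Read-out is the rate of pNA chromophore release (mOD/min, linear fit) monitored at 405-603 nm over 20 min at 37° C. Substrate was succinyl-Tyr-Val-Ala-Asp-pNitroanilide, added after a 15 min room-temperature preincubation of ICE with inhibitor.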

IC50 (IL-1β, human whole blood) [nM]	Ki (ICE) [nM]	SMILES	IC50 [1] [nM]
3200	5	COc1ccccc1C(=O)C(=O)N[C@H]1CN(C(C)=O)c2ccccc2N(CC(=O)N[C@H](C=O)CC(=O)O)C1=O [Compound 705]	2300
5800	5	COc1cccc(OC)c1C(=O)C(=O)N[C@H]1CN(C(C)=O)c2ccccc2N(CC(=O)N[C@H](C=O)CC(=O)O)C1=O [Compound 706]	2400
7000	4.5	CN(C)c1ccc(C(=O)N[C@H]2CN(C(=O)CO)c3ccccc3N(CC(=O)N[C@H](C=O)CC(=O)O)C2=O)cc1 [Compound 913]	2400
3000	16	O=C[C@H](CC(=O)O)NC(=O)CN1C(=O)[C@@H](NC(=O)c2ccc3[nH]cnc3c2)CN(C(=O)CO)c2ccccc21 [Compound 920]	2100
3000	8.5	COc1ccccc1C(=O)C(=O)N[C@H]1CN(C(=O)CO)c2ccccc2N(CC(=O)N[C@H](C=O)CC(=O)O)C1=O [Compound 921]	1800
9000	55	COc1c(Cl)cc(C(=O)NN2CCC(=O)N3CCC[C@@H](C(=O)N[C@H](C=O)CC(=O)O)N3C2=O)cc1Cl [Compound 1125]	2300

Continued, molecule first:

SMILES	IC50 (IL-1β, human whole blood) [nM]	Ki (ICE) [nM]	IC50 [1] [nM]
CC(=O)N1C[C@H](NC(=O)C(=O)c2c(C)cc(C)cc2C)C(=O)N(CC(=O)N[C@H](C=O)CC(=O)O)c2ccccc21 [Compound 709]	14000	10	2100
O=C[C@H](CC(=O)O)NC(=O)CN1C(=O)[C@@H](NC(=O)c2ccc3c(c2)OCO3)CN(C(=O)CO)c2ccccc21 [Compound 910]	3800	10	3400
CC(=O)Nc1ccc(C(=O)N[C@H]2CN(C(=O)CO)c3ccccc3N(CC(=O)N[C@H](C=O)CC(=O)O)C2=O)cc1 [Compound 911]	1900	9	3500
COc1ccc(C(=O)N[C@H]2CN(C(=O)CO)c3ccccc3N(CC(=O)N[C@H](C=O)CC(=O)O)C2=O)cc1 [Compound 912]	3800	10	4200
CC(=O)Nc1ccc(C(=O)N[C@H]2CN(C(=O)CO)c3ccccc3N(CC(=O)N[C@H](C=O)CC(=O)O)C2=O)cc1Cl [Compound 914]	2800	5.2	2600
CC(=O)Nc1c(Cl)cc(C(=O)N[C@H]2CN(C(=O)CO)c3ccccc3N(CC(=O)N[C@H](C=O)CC(=O)O)C2=O)cc1Cl [Compound 915]	1900	11.5	> 8000
O=C[C@H](CC(=O)O)NC(=O)CN1C(=O)[C@@H](NC(=O)c2cc3ccccc3[nH]2)CN(C(=O)CO)c2ccccc21 [Compound 919]	4300	4	2000
O=C[C@H](CC(=O)O)NC(=O)[C@@H]1CCCN2C(=O)CCN(NC(=O)CCc3ccccc3)C(=O)N12 [Compound 1105]	3000	250	3500
O=C[C@H](CC(=O)O)NC(=O)[C@@H]1CCCN2C(=O)CCN(NC(=O)C(=O)c3ccccc3)C(=O)N12 [Compound 1106]	1700	75	4000
O=C[C@H](CC(=O)O)NC(=O)[C@@H]1CCCN2C(=O)CCN(NC(=O)C(=O)c3c[nH]c4ccccc34)C(=O)N12 [Compound 1108]	2600	22	1400
COc1ccccc1C(=O)C(=O)NN1CCC(=O)N2CCC[C@@H](C(=O)N[C@H](C=O)CC(=O)O)N2C1=O [Compound 1111]	4400	18	6050
COc1cccc(OC)c1C(=O)C(=O)NN1CCC(=O)N2CCC[C@@H](C(=O)N[C@H](C=O)CC(=O)O)N2C1=O [Compound 1112]	2300	3.5	1800
Cc1cc(C)c(C(=O)C(=O)NN2CCC(=O)N3CCC[C@@H](C(=O)N[C@H](C=O)CC(=O)O)N3C2=O)c(C)c1 [Compound 1117]	1300	35	1700
